Patent US11254668B2, “Pyrazolo[1,5-A]pyrazin-4-yl and related derivatives” (Pfizer Inc., priority 2017, dated 2022)
Where two headings read alike, the source gives them in different places.

Experiments:
Format in all cases: biochemical
[1] = target: TYK2 (Homo sapiens (Human), UniProt P29597); assay: JAK Caliper Enzyme Assay at 1 mM ATP, TYK2
How it was run: (§1)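 Peptide phosphorylation by recombinant human kinase domain, 1 mM ATP, room temperature, EDTA-terminated, detected by microfluidic mobility shift; % effect normalised to DMSO baseline.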

[2] = target: JAK1 (Homo sapiens (Human), UniProt P23458); assay: JAK Caliper Enzyme Assay at 1 mM ATP, JAK1
How it was run: (§2)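 Recombinant human kinase domains phosphorylated a fluorescent synthetic peptide at room temperature, with enzyme level and time tuned to 20% to 30% conversion; EDTA stop buffer ended reactions. Mobility-shift separation gave percent product from peak heights, normalised to DMSO and positive controls, and IC50s came from concentration–effect curves.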

[3] = target: JAK2 (Homo sapiens (Human), UniProt O60674); assay: JAK Caliper Enzyme Assay at 1 mM ATP, JAK2
How it was run: as §1

[4] = target: JAK3 (Homo sapiens (Human), UniProt P52333); assay: JAK Caliper Enzyme Assay at 1 mM ATP, JAK3
How it was run: as §2

Chain of JAK3 (P52333 822-1111): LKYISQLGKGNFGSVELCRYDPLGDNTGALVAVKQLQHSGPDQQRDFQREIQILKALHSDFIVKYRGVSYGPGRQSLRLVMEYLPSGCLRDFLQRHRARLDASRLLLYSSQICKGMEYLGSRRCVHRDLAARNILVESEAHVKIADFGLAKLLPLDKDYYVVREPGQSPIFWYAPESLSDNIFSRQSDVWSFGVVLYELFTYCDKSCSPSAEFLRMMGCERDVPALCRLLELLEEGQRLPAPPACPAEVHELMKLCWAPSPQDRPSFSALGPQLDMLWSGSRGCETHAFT
Chain of JAK2 (O60674 849-1124): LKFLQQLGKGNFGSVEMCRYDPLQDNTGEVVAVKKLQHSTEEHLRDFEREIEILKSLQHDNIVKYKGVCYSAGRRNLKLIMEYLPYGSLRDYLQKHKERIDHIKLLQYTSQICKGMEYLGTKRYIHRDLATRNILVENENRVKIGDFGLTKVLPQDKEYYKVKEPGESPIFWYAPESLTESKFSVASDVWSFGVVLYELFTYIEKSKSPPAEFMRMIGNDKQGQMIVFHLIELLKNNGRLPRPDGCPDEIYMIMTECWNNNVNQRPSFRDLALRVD
Chain of TYK2 (P29597 897-1176): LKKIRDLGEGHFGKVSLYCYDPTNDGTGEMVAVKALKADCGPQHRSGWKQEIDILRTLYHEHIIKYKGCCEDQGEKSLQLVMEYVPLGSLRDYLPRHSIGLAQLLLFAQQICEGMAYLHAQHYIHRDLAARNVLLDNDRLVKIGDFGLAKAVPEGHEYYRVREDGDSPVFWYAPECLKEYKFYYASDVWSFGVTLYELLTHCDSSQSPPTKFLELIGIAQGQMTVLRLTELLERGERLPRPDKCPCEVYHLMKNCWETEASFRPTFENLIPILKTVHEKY
Chain of JAK1 (P23458 875-1153): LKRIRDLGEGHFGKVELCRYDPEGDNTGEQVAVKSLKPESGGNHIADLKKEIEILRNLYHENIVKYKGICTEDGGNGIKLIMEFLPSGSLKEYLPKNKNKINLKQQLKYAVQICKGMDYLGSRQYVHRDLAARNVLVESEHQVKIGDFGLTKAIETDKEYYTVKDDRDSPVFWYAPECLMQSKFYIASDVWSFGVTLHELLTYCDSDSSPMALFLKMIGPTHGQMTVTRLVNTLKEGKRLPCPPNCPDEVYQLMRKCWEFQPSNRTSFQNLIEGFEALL

Row | Structure (SMILES) | IC50 [1] [nM] | IC50 [2] [nM] | IC50 [3] [nM] | IC50 [4] [nM] | IC50 ([1]; JAK Caliper enzyme assay) [nM] | IC50 ([2]; JAK Caliper enzyme assay) [nM] | IC50 ([3]; JAK Caliper enzyme assay) [nM] | IC50 ([4]; JAK Caliper enzyme assay) [nM]
1 | Cn1cc(-c2cc(-c3cn(C4(CC#N)CN(S(C)(=O)=O)C4)nn3)c3cccnc3c2)cn1 [Example 294, [3-{4-[7-(1-methyl-1H-pyrazol-4-yl)quinolin-5-yl]-1H-1,2,3-triazol-1-yl}-1-(methylsulfonyl)azetidin-3-yl]acetonitrile] | 267 | 1340 | 151 | > 10000 |  |  |  | 
2 | COc1nc(-c2cc(-c3cnn([C@]4(CC#N)C[C@H](C#N)C4)n3)c3cccnc3c2)ccc1N [Example 383, cis-3-{4-[7-(5-amino-6-methoxypyridin-2-yl)quinolin-5-yl]-2H-1,2,3-triazol-2-yl}-3-(cyanomethyl)cyclobutanecarbonitrile] |  |  |  |  | 7 | 59 | 35 | 4250
3 | N#CCC1(n2ccc(-c3nc(-c4cc[nH]n4)cc4ncccc34)n2)CC2(COC2)C1 [Example 37, (6-{3-[7-(1H-pyrazol-3-yl)-1,6-naphthyridin-5-yl]-1H-pyrazol-1-yl}-2-oxaspiro[3.3]hept-6-yl)acetonitrile] | 369 | 4280 | 2830 | > 10000 |  |  |  | 
4 | N#CC[C@]1(n2ncc(-c3cc(-c4cnn5cccnc45)cc4ncccc34)n2)C[C@H](C#N)C1 [Example 420, trans-3-(cyanomethyl)-3-{4-[7-(pyrazolo[1,5-a]pyrimidin-3-yl)quinolin-5-yl]-2H-1,2,3-triazol-2-yl}cyclobutanecarbonitrile] |  |  |  |  | 909 | > 10000 | 1700 | > 10000
5 | N#CC[C@]1(n2ccc(-c3nc(-c4ccnc(C(N)=O)c4)cc4ncccc34)n2)C[C@H](C#N)C1 [Example 216, 4-(5-{1-[cis-3-cyano-1-(cyanomethyl)cyclobutyl]-1H-pyrazol-3-yl}-1,6-naphthyridin-7-yl)pyridine-2-carboxamide] | 36 | 464 | 117 | > 10000 |  |  |  | 
6 | Cn1cc(-c2cc(-c3cnn(C4(CC#N)CC(C#N)C4)n3)n3ccnc3c2)cn1 (stereo not drawn) [Example 474, trans-3-(cyanomethyl)-3-{4-[7-(1-methyl-1H-pyrazol-4-yl)imidazo[1,2-a]pyridin-5-yl]-2H-1,2,3-triazol-2-yl}cyclobutanecarbonitrile] |  |  |  |  | 1120 | > 10000 | > 10000 | > 10000
7 | C[C@]1(C#N)C[C@@](CC#N)(n2ccc(-c3nc(-c4cc[nH]n4)cc4ncccc34)n2)C1 [Example 35, cis-3-(cyanomethyl)-1-methyl-3-{3-[7-(1H-pyrazol-3-yl)-1,6-naphthyridin-5-yl]-1H-pyrazol-1-yl}cyclobutanecarbonitrile] | 44 | 569 | 339 | > 10000 |  |  |  | 
8 | N#CCC1(n2ncc(-c3cc(-c4ccc(C(N)=O)cn4)cc4ncccc34)n2)CC(C#N)C1 (stereo not drawn) [Example 352, 6-(5-{2-[cis-3-cyano-1-(cyanomethyl)cyclobutyl]-2H-1,2,3-triazol-4-yl}quinolin-7-yl)pyridine-3-carboxamide] | 27 | 825 | 106 | > 10000 |  |  |  | 
9 | Cc1cc(-c2nc(-c3cn[nH]c3)cc3ncccc23)nn1[C@]1(CC#N)C[C@@H](C#N)C1 [Example 273, trans-3-(cyanomethyl)-3-{5-methyl-3-[7-(1H-pyrazol-4-yl)-1,6-naphthyridin-5-yl]-1H-pyrazol-1-yl}cyclobutanecarbonitrile] | 49 | 786 | 311 | > 10000 |  |  |  | 
10 | Cn1cc(-c2cc(-c3cnn(C4(CC#N)CN(CC(F)(F)F)C4)c3)n3ncnc3c2)cn1 [Example 475, [3-{4-[7-(1-methyl-1H-pyrazol-4-yl)[1,2,4]triazolo[1,5-a]pyridin-5-yl]-1H-pyrazol-1-yl}-1-(2,2,2-trifluoroethyl)azetidin-3-yl]acetonitrile] |  |  |  |  | 462 | 6670 | 6850 | > 10000
11 | Cc1nc(-c2cc3ncccc3c(-c3ccn(C4(CC#N)CN(CC(F)(F)F)C4)n3)n2)cn1C [Example 151, [3-{3-[7-(1,2-dimethyl-1H-imidazol-4-yl)-1,6-naphthyridin-5-yl]-1H-pyrazol-1-yl}-1-(2,2,2-trifluoroethyl)azetidin-3-yl]acetonitrile] | 309 | > 10000 | 1660 | > 10000 |  |  |  | 
12 | CS(=O)(=O)N1CC(CC#N)(n2ccc(-c3nc(-c4cc(F)ccc4O)cc4ncccc34)n2)C1 [Example 262, [3-{3-[7-(5-fluoro-2-hydroxyphenyl)-1,6-naphthyridin-5-yl]-1H-pyrazol-1-yl}-1-(methylsulfonyl)azetidin-3-yl]acetonitrile] | 242 | > 10000 | > 10000 | > 10000 |  |  |  | 
13 | N#CC[C@]1(n2ncc(-c3cc(-c4c[nH]nc4CO)cc4ncccc34)n2)C[C@H](C#N)C1 [Example 317, trans-3-(cyanomethyl)-3-(4-{7-[3-(hydroxymethyl)-1H-pyrazol-4-yl]quinolin-5-yl}-2H-1,2,3-triazol-2-yl)cyclobutanecarbonitrile] | 57 | 2830 | 838 | > 10000 |  |  |  | 
14 | N#CCC1(n2ncc(-c3cc(-c4ncccn4)cc4ncccc34)n2)CC(C#N)C1 (stereo not drawn) [Example 390, trans-3-(cyanomethyl)-3-{4-[7-(pyrimidin-2-yl)quinolin-5-yl]-2H-1,2,3-triazol-2-yl}cyclobutanecarbonitrile] |  |  |  |  | 1280 | > 10000 | > 10000 | > 10000
15 | CS(=O)(=O)N1CC(CC#N)(n2ccc(-c3nc(-c4c[nH]c5cccnc45)cc4ncccc34)n2)C1 [Example 160, [1-(methylsulfonyl)-3-{3-[7-(1H-pyrrolo[3,2-b]pyridin-3-yl)-1,6-naphthyridin-5-yl]-1H-pyrazol-1-yl}azetidin-3-yl]acetonitrile] | 795 | > 10000 | 5570 | > 10000 |  |  |  | 

Now from value to compound:

Row | IC50 [1] [nM] | IC50 [2] [nM] | IC50 [3] [nM] | IC50 [4] [nM] | IC50 ([1]; JAK Caliper enzyme assay) [nM] | IC50 ([2]; JAK Caliper enzyme assay) [nM] | IC50 ([3]; JAK Caliper enzyme assay) [nM] | IC50 ([4]; JAK Caliper enzyme assay) [nM] | Structure (SMILES)
16 | 42 | 4060 | 294 | > 10000 |  |  |  |  | CS(=O)(=O)N1CC(CC#N)(n2ccc(-c3nc(-c4ccn5ccnc5c4)cc4ncccc34)n2)C1 [Example 163, [3-{3-[7-(imidazo[1,2-a]pyridin-7-yl)-1,6-naphthyridin-5-yl]-1H-pyrazol-1-yl}-1-(methylsulfonyl)azetidin-3-yl]acetonitrile]
17 | 20 | 262 | 52 | 3290 |  |  |  |  | N#CC[C@]1(n2ncc(-c3cc(-c4cnn(CCO)c4)cc4ncccc34)n2)C[C@@H](C#N)C1 [Example 327, cis-3-(cyanomethyl)-3-(4-{7-[1-(2-hydroxyethyl)-1H-pyrazol-4-yl]quinolin-5-yl}-2H-1,2,3-triazol-2-yl)cyclobutanecarbonitrile]
18 | 10 | 280 | 252 | > 10000 |  |  |  |  | N#CCC1(n2ncc(-c3cc(-c4cc[nH]n4)cc4ncccc34)n2)CN(S(=O)(=O)C2CC2)C1 [Example 299, [1-(cyclopropylsulfonyl)-3-{4-[7-(1H-pyrazol-3-yl)quinolin-5-yl]-2H-1,2,3-triazol-2-yl}azetidin-3-yl]acetonitrile]
19 | 11 | 220 | 131 | > 10000 |  |  |  |  | CS(=O)(=O)N1CC(CC#N)(n2ccc(-c3nc(-c4ccc(=O)[nH]c4)cc4ncccc34)n2)C1 [Example 245, [1-(methylsulfonyl)-3-{3-[7-(6-oxo-1,6-dihydropyridin-3-yl)-1,6-naphthyridin-5-yl]-1H-pyrazol-1-yl}azetidin-3-yl]acetonitrile]
20 | 34 | 7430 | 510 | > 10000 |  |  |  |  | Cc1cc(-c2cc3ncccc3c(-c3ccn([C@]4(CC#N)C[C@@H](C#N)C4)n3)n2)nn1C [Example 58, trans-3-(cyanomethyl)-3-{3-[7-(1,5-dimethyl-1H-pyrazol-3-yl)-1,6-naphthyridin-5-yl]-1H-pyrazol-1-yl}cyclobutanecarbonitrile]
21 | 27 | 715 | 68 | 9880 |  |  |  |  | CS(=O)(=O)N1CC(CC#N)(n2ccc(-c3nc(-c4cnn([C@@H]5CCOC5)c4)cc4ncccc34)n2)C1 [Example 124, {1-(methylsulfonyl)-3-[3-(7-{1-[(3R)-tetrahydrofuran-3-yl]-1H-pyrazol-4-yl}-1,6-naphthyridin-5-yl)-1H-pyrazol-1-yl]azetidin-3-yl}acetonitrile]
22 | 20 | 489 | 34 | 2020 |  |  |  |  | Cn1cc(-c2cc3ncccc3c(-c3ccn([C@]4(CC#N)C[C@@H](C#N)C4)n3)n2)c(CO)n1 [Example 135, trans-3-(cyanomethyl)-3-(3-{7-[3-(hydroxymethyl)-1-methyl-1H-pyrazol-4-yl]-1,6-naphthyridin-5-yl}-1H-pyrazol-1-yl)cyclobutanecarbonitrile]
23 | 27 | 1380 | 447 | > 10000 |  |  |  |  | Cc1cc(-c2nc(-c3cc[nH]n3)cc3ncccc23)nn1[C@]1(CC#N)C[C@@H](C#N)C1 [Example 269, trans-3-(cyanomethyl)-3-{5-methyl-3-[7-(1H-pyrazol-3-yl)-1,6-naphthyridin-5-yl]-1H-pyrazol-1-yl}cyclobutanecarbonitrile]
24 | 20 | 1750 | 101 | 9590 |  |  |  |  | CS(=O)(=O)N1CC(CC#N)(n2ccc(-c3nc(-c4cnn(C5COC5)c4)cc4ncccc34)n2)C1 [Example 121, [1-(methylsulfonyl)-3-(3-{7-[1-(oxetan-3-yl)-1H-pyrazol-4-yl]-1,6-naphthyridin-5-yl}-1H-pyrazol-1-yl)azetidin-3-yl]acetonitrile]
